Laboratory results: patent US20090099167A1, “Organic compounds” (Novartis Institutes for Biomedical Research, priority 2004, published 2009)

Experiments:
c-Abl kinase = biological target: T1, c-Abl kinase (Homo sapiens, UniProt P00519); assay: c-Abl protein-tyrosine kinase filter binding assay; assay type: biochemical; conditions: Table 5; read-out: C-abl, IC50 class
T1 construct: The His-tagged kinase domain of c-Abl is cloned and expressed in the baculovirus/Sf9 system; His; made in house; host or cells: Sf9 (baculovirus)
T1 sequence (P00519 242-493 limits assumed): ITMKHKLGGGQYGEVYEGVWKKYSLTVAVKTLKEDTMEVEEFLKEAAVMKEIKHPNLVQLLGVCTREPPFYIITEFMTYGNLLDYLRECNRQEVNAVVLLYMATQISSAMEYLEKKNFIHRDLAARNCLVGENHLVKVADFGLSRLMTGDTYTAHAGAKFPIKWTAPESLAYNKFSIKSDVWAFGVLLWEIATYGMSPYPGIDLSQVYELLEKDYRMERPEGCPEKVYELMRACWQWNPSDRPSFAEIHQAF
In short: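 His-tagged c-Abl kinase domain (37 kD, Sf9-expressed) with 30 μg/mL poly-AEKY and [γ-33P]-ATP (5 μM ATP) in 20 mM Tris.HCl pH 7.5, 10 mM MgCl2, 10 μM Na3VO4, 1 mM DTT, 1% DMSO. EDTA-stopped reactions captured on PVDF membranes, washed with 0.5% H3PO4, and scintillation-counted.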

Cdk1/cycB = Cdk1/cycB (UniProt P06493); assay: Cdk1/cycB kinase assay, histone H1 substrate; assay type: biochemical, starfish; conditions: Table 5; read-out: CDK1/B, IC50 class
In short: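 Active Cdk1/cycB was purified from starfish oocytes arrested in M phase with 1-methyladenine, using p9CKShs-sepharose. Reactions ran 20 min at ambient temperature and were stopped with EDTA. Phosphorylated product was captured on Immobilon P membranes, washed in H3PO4 and EtOH, and counted by scintillation.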

IC50 (c-Abl kinase) | IC50 (Cdk1/cycB) | SMILES
> 10 µM | > 10 µM | COc1ccc(-c2cnn3c(N)c(-c4ccc(F)c(Cl)c4)c(C)nc23)cc1OC [Example 94, 6-(3-Chloro-4-fluoro-phenyl)-3-(3,4-dimethoxy-phenyl)-5-methyl-pyrazolo[1,5-a]pyrimidin-7-ylamine]
< 1 µM | > 10 µM | COc1ccc(-c2cnn3c(N)c(-c4ccc(F)c(Cl)c4)c(C)nc23)cc1 [Example 95, 6-(3-Chloro-4-fluoro-phenyl)-3-(4-methoxy-phenyl)-5-methyl-pyrazolo[1,5-a]pyrimidin-7-ylamine]
< 1 µM | > 10 µM | COc1ccc(-c2cnn3c(N)c(-c4ccc(F)cc4)c(C)nc23)cc1 [Example 96, 6-(4-Fluoro-phenyl)-3-(4-methoxy-phenyl)-5-methyl-pyrazolo[1,5-a]pyrimidin-7-ylamine]
< 1 µM | > 10 µM | Cc1nc2c(-c3cccc(N4CCN(CCO)CC4)c3)cnn2c(N)c1-c1ccc(F)cc1 [Example 97, 2-(4-{3-[7-Amino-6-(4-fluoro-phenyl)-5-methyl-pyrazolo[1,5-a]pyrimidin-3-yl]-phenyl}-piperazin-1-yl)-ethanol]
< 1 µM | > 10 µM | Cc1nc2c(-c3cccc(N4CCN(C)CC4)c3)cnn2c(N)c1-c1ccc(F)c(F)c1 [Example 98, 6-(3,4-Difluoro-phenyl)-5-methyl-3-[3-(4-methyl-piperazin-1-yl)-phenyl]-pyrazolo[1,5-a]pyrimidin-7-ylamine]
< 1 µM | > 10 µM | COc1ccc(-c2cnn3c(N)c(-c4ccc(F)c(F)c4)c(C)nc23)cc1OC [Example 99, 6-(3,4-Difluoro-phenyl)-3-(3,4-dimethoxy-phenyl)-5-methyl-pyrazolo[1,5-a]pyrimidin-7-ylamine]
< 1 µM | > 10 µM | Cc1nc2c(-c3cccc(N4CCN(CCO)CC4)c3)cnn2c(N)c1-c1ccc(F)c(Cl)c1 [Example 100, 2-(4-{3-[7-Amino-6-(3-chloro-4-fluoro-phenyl)-5-methyl-pyrazolo[1,5-a]pyrimidin-3-yl]-phenyl}-piperazin-1-yl)-ethanol]
< 1 µM | > 10 µM | Cc1nc2c(-c3cccc(N4CCN(CCO)CC4)c3)cnn2c(N)c1-c1ccc(F)c(F)c1 [Example 101, 2-(4-{3-[7-Amino-6-(3,4-difluoro-phenyl)-5-methyl-pyrazolo[1,5-a]pyrimidin-3-yl]-phenyl}-piperazin-1-yl)-ethanol]
< 1 µM | > 10 µM | Cc1nc2c(-c3cccc(N4CCC(N5CCCC5)CC4)c3)cnn2c(N)c1-c1cccc(Cl)c1 [Example 102, 6-(3-Chloro-phenyl)-5-methyl-3-[3-(4-pyrrolidin-1-yl-piperidin-1-yl)-phenyl]-pyrazolo[1,5-a]pyrimidin-7-ylamine]
< 1 µM | > 10 µM | Cc1nc2c(-c3cccc(N4CCC(N5CCCC5)CC4)c3)cnn2c(N)c1-c1ccc(F)cc1 [Example 103, 6-(4-Fluoro-phenyl)-5-methyl-3-[3-(4-pyrrolidin-1-yl-piperidin-1-yl)-phenyl]-pyrazolo[1,5-a]pyrimidin-7-ylamine]
< 1 µM | > 10 µM | Cc1nc2c(-c3cccc(N4CC[N+](C)([O-])CC4)c3)cnn2c(N)c1-c1ccc(F)cc1 [Example 106, 6-(4-Fluoro-phenyl)-5-methyl-3-[3-(4-methyl-4-oxy-piperazin-1-yl)-phenyl]-pyrazolo[1,5-a]pyrimidin-7-ylamine]
< 1 µM | > 10 µM | Cc1nc2c(-c3cccc([N+]4([O-])CC[N+](C)([O-])CC4)c3)cnn2c(N)c1-c1ccc(F)cc1 (stereo not drawn) [Example 107, 6-(4-Fluoro-phenyl)-5-methyl-3-[3-(4-methyl-1,4-dioxy-piperazin-1-yl)-phenyl]-pyrazolo[1,5-a]pyrimidin-7-ylamine]
